Assay [1] has as its system Female Wistar rats. The assay is described as follows: Serum hormone determination (T, E2, LH, FSH) by ELISA in rats injected with testosterone propionate. The assay is classed as in vivo. Particulars: after 8 weeks of gavage intervention. On the procedure:
Female Wistar rats weighing 220-230 g were selected, and all rats were free to eat. One week later, without any intervention, they were randomly divided into control group CK (n=10; Placebo); Model group MD (n=10; Placebo); Experimental group A (n=10; Ergothioneine 2.25 mg/kg/d); Experimental group B (n=10; Ergothioneine 2.25 mg/kg/d+Pyrroloquinoline quinone 1.8 mg/kg/d); Experimental group C (n=10; Ergothioneine 2.25 mg/kg/d+Pyrroloquinoline quinone 1.8 mg/kg/d+Oenothera biennis 18 mg/kg/d+inositol 9 mg/kg/d). Four groups of rats were injected with testosterone propionate (10 mg/kg, once a day for 6 weeks) and olive oil continuously. Administration was performed by gavage. Gavage intervention in each group lasted for 8 weeks. Finally, the rats were anesthetized with 1% pentobarbital sodium, and the rats were killed when they were estrus after fasting for 16 h. Blood was collected through abdominal aorta, and the serum was taken after centrifugation at 4° C. for 15 min at a speed of 1000 g. Hormone determination: Serum total testosterone T, luteinizing hormone LH, follicle stimulating hormone FSH and estradiol E2 were determined by ELISA. […] Graphpad 8.0 software was used to analyze the data, and the result data was expressed as standard deviation (x±s), and the significance was analyzed by one-way ANOVA test.
Background: An ELISA detects its analyte on a solid surface through an enzyme-linked reagent.

Assay [2] has as its system Female Wistar rats. Put plainly: OGTT blood glucose by glucose oxidase method in rats injected with testosterone propionate. Format: in vivo. Particulars: different time points within 120 min, last week of gavage. On the procedure: (§1) Female Wistar rats weighing 220-230 g were selected, and all rats were free to eat. One week later, without any intervention, they were randomly divided into control group CK (n=10; Placebo); Model group MD (n=10; Placebo); Experimental group A (n=10; Ergothioneine 2.25 mg/kg/d); Experimental group B (n=10; Ergothioneine 2.25 mg/kg/d+Pyrroloquinoline quinone 1.8 mg/kg/d); Experimental group C (n=10; Ergothioneine 2.25 mg/kg/d+Pyrroloquinoline quinone 1.8 mg/kg/d+Oenothera biennis 18 mg/kg/d+inositol 9 mg/kg/d). Four groups of rats were injected with testosterone propionate (10 mg/kg, once a day for 6 weeks) and olive oil continuously. Administration was performed by gavage.
(§2) OGTT, insulin, HOMA-IR and blood lipid were measured in each group at the last week of gavage. After fasting for 16 h, fasting blood glucose (0 min) was measured. Subsequently, rats were intraperitoneally injected with 50% glucose solution (2 g/kg). At each time point (0 min, 30 min, 60 min, 120 min), the blood glucose of rats was measured by glucose oxidase method. […] Serum total cholesterol (TC) and total triglyceride (TG) were detected by total cholesterol detection kit and triglyceride detection kit.
(§3) Graphpad 8.0 software was used to analyze the data, and the result data was expressed as standard deviation (x±s), and the significance was analyzed by one-way ANOVA test.

In assay [3] the test system is Female Wistar rats. The assay is described as follows: HOMA-IR index from fasting insulin and fasting blood glucose. Format: in vivo. Particulars: calculated from fasting blood glucose and fasting insulin; Model group 12.5. On the procedure: as §1, §2, §3
Assay [4] concerns Female Wistar rats. Put plainly: Serum total cholesterol (TC) and total triglyceride (TG) detection. Particulars: rat, in vivo. The method, then:
Female Wistar rats weighing 220-230 g were selected, and all rats were free to eat. One week later, without any intervention, they were randomly divided into control group CK (n=10; Placebo); Model group MD (n=10; Placebo); Experimental group A (n=10; Ergothioneine 2.25 mg/kg/d); Experimental group B (n=10; Ergothioneine 2.25 mg/kg/d+Pyrroloquinoline quinone 1.8 mg/kg/d); Experimental group C (n=10; Ergothioneine 2.25 mg/kg/d+Pyrroloquinoline quinone 1.8 mg/kg/d+Oenothera biennis 18 mg/kg/d+inositol 9 mg/kg/d). Four groups of rats were injected with testosterone propionate (10 mg/kg, once a day for 6 weeks) and olive oil continuously. Administration was performed by gavage. Gavage intervention in each group lasted for 8 weeks. […] OGTT, insulin, HOMA-IR and blood lipid were measured in each group at the last week of gavage. After fasting for 16 h, fasting blood glucose (0 min) was measured. […] At each time point (0 min, 30 min, 60 min, 120 min), the blood glucose of rats was measured by glucose oxidase method. […] Serum total cholesterol (TC) and total triglyceride (TG) were detected by total cholesterol detection kit and triglyceride detection kit. Graphpad 8.0 software was used to analyze the data, and the result data was expressed as standard deviation (x±s), and the significance was analyzed by one-way ANOVA test.

Structures are written as SMILES.

Consider `C[N+](C)(C)[C@@H](Cc1c[nH]c(=S)[nH]1)C(=O)[O-]` [Experimental group A, Ergothioneine], for which, in assay [1], the “serum E2 compared with the Model group” value is on record as “decreased significantly” and the “serum T compared with the Model group” value is “decreased significantly”. In addition, the “blood glucose levels compared with the Model group” value in assay [2] was “decreased significantly”. In assay [3], the HMOA-IR index was 11.3. In assay [4], the “content of TC in serum compared with the Model group” value is “significantly reduce” and the “content of TG in serum compared with the Model group” value is given as “significantly reduce”.

Values taken from patent US20260115183A1, “METHOD AND COMPOSITION FOR PROTECTING OR IMPROVING OVARIAN FUNCTION IN MAMMALS” (NANJING NUTRABUILDING BIO-TECH CO., LTD., priority 2023, published 2026).
